Holding throughout (type): cell-based
The test system of one data set is HIV-1. The data set can be described thus: Anti-HIV activity: inhibition of HIV-1 replication in infected established cell lines. The conditions noted are these: laboratory strains of HIV-1, established cell lines, 4 to 6 days post-infection. As to the method: (§1) Laboratory strains of HIV-1, were used to infect established cell lines by using a specific multiplicity of infection (MOI) of the virus for 1 hour at 37° C. prior to washing the cells and re-suspension in medium containing increasing concentrations of drug (or test compound). At 4 to 6 days post-infection, drug-treated and control wells are analyzed for an HIV-1 induced cytopathic effect and/or for the presence of viral reverse transcriptase (RT) or viral p24 antigen in the culture medium (Buckheit and Swanstrom (1991) AIDS Res. Human Retroviruses 7:295-302; Ojwang, et al (1994) J. Acquired Immune Deficiency Syndrome 7:560-570; Ojwang, J. O., et al (1995) Antimicrobial Agents and Chemotherapy. 39:2426-2435 and Rando et al (1995) J. Biol. Chem. 270:1754-1760).

Another data set has as its system established cell lines. The data set can be described thus: Cytotoxicity (CCTD50) reported with the anti-HIV-1 assay. The conditions noted are these: cytotoxicity Table 1 (HIV-1 assay). Here is the method: as §1
The next data set has as its system HBV. Kind of data set: Anti-HBV activity: inhibition of HBV replication in 2.2.15 cells. The conditions noted are these: twelve days postadministration. Here is the method: (§2) The 2.2.15 cell line derived from HepG2 cells transfected with episomal HBV DNA (Sells et al (1987) Proc. Natl. Acad. Sci. USA 84:1005-1009 and (1988) J. Virol. 62:2836-2844) was used. The assay was performed basically as described by Ojwang et al. (1995) Antimicrobial Agents and Chemotherapy 39:2570-2573 ). The 2.2.15 cells are seeded (10^5 cells per well) in 300 ul of minimal essential medium supplemented with 10% fetal bovine serum, using 24-well plates pre-coated with 150 ul of 0.1 mg of collagen (rat tail) type I per ml reconstituted in 0.02 M acetic acid. The collagen treatment helped the cells 10 disperse evenly over the culture plate. Once the cells reach confluency (approximately 1 day), the culture medium is replaced every 2 days with medium containing various concentrations of the indicated test compound. In this experiment, the nucleosides 2′,3′-dideoxy-3′-thiacytidine (3TC) or 2′,3′-dideoxycytidine (ddC) are used as positive controls (Ojwang et al. (1995)). Twelve days postadministration of the test compounds, cells are harvested and DNA is prepared as described by Fennewald et al. ( (1995) Antiviral Res. 26:37-54.). At the same time, the culture medium is saved and analyzed for the presence of extracellular viral nucleic acids.
The integrated and episomal HBV DNAs are easily separated by using agarose gel electrophoresis which allows for the differential quantification of the two species of HBV DNA. […] As a molecular probe, a subgenomic fragment of the HBV DNA is cloned into the pCRII TA cloning vector (Invitrogen) plasmid between the two EcoR1 sites. The subgenomic HBV DNA fragment is obtained by using the PCR technique to amplify a portion of the HBV genome (nucleotide positions 2134 to 143). Total DNA isolated from 2.2.15 cells is used as the PCR template with primer sets corresponding to nucleotide positions 2134 to 2151 (forward) and 143 to 126 (reverse). […] In addition, the filters are also exposed to a photoimaging plate and quantitated, using a Fujix Bioimaging Analyzer System BAS 1000 (or similar) instrument.

The nature of data set [1]: Cytotoxicity (CC50) reported with the anti-HBV assay. Particulars: human; cytotoxicity of Table 2 (HBV assay, 2.2.15 cells). As to the method: as §2
For data set [2], the system named is 2.2.15 cell line derived from HepG2 cells. The description is as above. The conditions noted are these: cytotoxicity of Table 2 (HBV assay, 2.2.15 cells). As to the method: as §2

By CC50 is commonly meant the concentration at which the toxic effect on the cells reaches its halfway point.

In the case of `Nc1nc(O)c2ncn(C[C@H]3O[C@@H](P(=O)(O)O)C[C@@H]3F)c2n1` [Compound 23], the EC50 in the data set with HIV-1 (Human immunodeficiency virus 1, read-out: EC50 (μg/ml), inhibition of HIV-1 replication) was over 10 µg/mL; in the data set on HBV (Hepatitis B virus, read-out: EC50 (μg/ml), inhibition of HBV replication), over 30 µg/mL. In addition, the “CCTD50” value in the data set on established cell lines is over 10 µg/mL. In addition, in data set [1], the CC50 is over 300 µg/mL.
Take “Ammonium; 5-(2-Amino-6-oxo-1,6-dihydro-purin-9-ylmethyl)-3,4-dihydroxy-tetrahydro-furan-2-phosphonate [Example 10]”: the “EC50 (μg/ml), inhibition of HIV-1 replication” value in the data set on HIV-1 amounted to 5 µg/mL. In the data set on established cell lines, the “CCTD50” value is over 10 µg/mL. Also, in the data set with HBV, the “EC50 (μg/ml), inhibition of HBV replication” value is 0.295 µg/mL. Moreover, the “CC50” value in data set [2] was over 300 µg/mL.
The corresponding values for `Nc1nc2c(nc(Cl)n2CC2CCC(P(=O)(Oc3ccccc3)Oc3ccccc3)O2)c(=O)[nH]1` (stereo not drawn) [Example 16, [5-(2-Amino-8-chloro-6-oxo-1,6-dihydro-purin-9-ylmethyl)-tetrahydro-furan-2-yl]-phosphonic Acid Diphenyl Ester] are 0.46 µg/mL, over 10 µg/mL, 11 µg/mL and over 300 µg/mL.

Source of the values: patent US6444656B1, “Antiviral phosphonate nucleotides” (BioChem Pharma, Inc., priority 1992, dated 2002).
